Laboratory results from PubChem BioAssay AID493133 (Sanford-Burnham Center for Chemical Genomics, 2011).
The source made the active and inactive calls. The rule behind the calls is not given here.

Target: Alkaline phosphatase, tissue-nonspecific isozyme (Homo sapiens) (UniProt P05186)
Test: human TNAP activity change by analogs – biochemical, selectivity assay for mouse IAP activator project, SAR follow-up (AID 493133)
Settings: purified human TNAP enzyme, phosphatase activity counter-screen

Chain of Alkaline phosphatase, tissue-nonspecific isozyme (Homo sapiens) (P05186 whole entry, looked up): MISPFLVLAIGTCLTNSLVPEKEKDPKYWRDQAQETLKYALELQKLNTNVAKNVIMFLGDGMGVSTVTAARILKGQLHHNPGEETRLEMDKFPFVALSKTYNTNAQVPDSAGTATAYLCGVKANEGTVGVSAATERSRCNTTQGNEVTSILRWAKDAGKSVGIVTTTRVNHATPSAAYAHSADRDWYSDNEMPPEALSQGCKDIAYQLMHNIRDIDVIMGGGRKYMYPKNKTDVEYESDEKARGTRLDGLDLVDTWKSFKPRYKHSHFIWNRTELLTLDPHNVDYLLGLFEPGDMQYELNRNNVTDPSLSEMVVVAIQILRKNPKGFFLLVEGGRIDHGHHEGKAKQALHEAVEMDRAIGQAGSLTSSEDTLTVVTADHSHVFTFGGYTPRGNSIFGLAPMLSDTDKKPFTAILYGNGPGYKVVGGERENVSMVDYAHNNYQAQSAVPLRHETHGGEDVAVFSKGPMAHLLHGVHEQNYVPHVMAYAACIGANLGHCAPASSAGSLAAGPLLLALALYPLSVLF

| Compound | EC50 |
| --- | --- |
| COc1ccc(NC(=O)CCNS(=O)(=O)c2ccc3[nH]c(=O)oc3c2)cc1Cl | > 100 µM (inactive) |
| N#Cc1c(SCC(=O)Nc2nc3ccccc3s2)sc2c(O)cc(=O)[nH]c12 | > 100 µM (inactive) |
| COc1cc(C(=O)NNC(=O)c2n[nH]c3ccccc23)cc(OC)c1OC | 75 µM |
| COc1cc(C(=O)NNC(=S)NC(=O)c2ccc(Cl)cc2)cc(OC)c1OC | 29.4 µM |
| NS(=O)(=O)c1ccc(-c2ccc(/C=C3\SC(=S)N(C4CCS(=O)(=O)C4)C3=O)o2)cc1 (stereo not given) | > 100 µM (inactive) |
| O=C(CCNS(=O)(=O)c1ccc2[nH]c(=O)oc2c1)Nc1cccc(-c2ccno2)c1 | > 100 µM (inactive) |
| N#Cc1c(SCC(=O)Nc2nncs2)sc2c(O)cc(=O)[nH]c12 | > 100 µM (inactive) |
| O=C(CCCN1C(=O)/C(=C\c2ccco2)SC1=S)Nc1ccc(O)cc1C(=O)O | > 100 µM (inactive) |
| CC(C(=O)N(C)C1CCS(=O)(=O)C1)N1C(=O)/C(=C/c2ccco2)SC1=S (stereo not given) | > 100 µM (inactive) |
| COc1ccccc1NC(=O)CSc1sc2c(O)cc(=O)[nH]c2c1C#N | > 100 µM (inactive) |
| CC(C)C(C(=O)NC1CCS(=O)(=O)C1)N1C(=O)/C(=C\c2ccco2)SC1=S (stereo not given) | > 100 µM (inactive) |
| N#Cc1c(SCC(=O)NCc2ccc3c(c2)OCO3)sc2c(O)cc(=O)[nH]c12 | > 100 µM (inactive) |
| O=C(CCN1C(=O)/C(=C/c2ccco2)SC1=S)Nc1ccc(O)cc1C(=O)O | > 100 µM (inactive) |
| Cc1ccc(/C=C2\SC(=S)N(C3CCS(=O)(=O)C3)C2=O)o1 (stereo not given) | > 100 µM (inactive) |
| CCc1nnc(NC(=O)CSc2sc3c(O)cc(=O)[nH]c3c2C#N)s1 | > 100 µM (inactive) |
| O=C(CN1C(=O)/C(=C\c2ccco2)SC1=S)Nc1ccc(O)cc1C(=O)O | > 100 µM (inactive) |
| N#Cc1cccc(NC(=O)CCNS(=O)(=O)c2ccc3[nH]c(=O)oc3c2)c1 | > 100 µM (inactive) |
| COc1ccc(NC(=S)NCCC(c2ccccc2)c2ccccc2)cc1 | 44.8 µM |
| COc1cccc(/C=N/NC(=O)c2cc(O)c(O)c(O)c2)c1 | > 100 µM (inactive) |
| CCSc1nnc(NC(=O)CSc2sc3c(O)cc(=O)[nH]c3c2C#N)s1 | > 100 µM (inactive) |
| CC(C(=O)Nc1cccc(C(=O)O)c1)N1C(=O)/C(=C\c2ccco2)SC1=S (stereo not given) | > 100 µM (inactive) |
| CCN(C(=O)C(C)N1C(=O)/C(=C/c2ccco2)SC1=S)C1CCS(=O)(=O)C1 (stereo not given) | > 100 µM (inactive) |
| O=C(CCN1C(=O)/C(=C/c2ccco2)SC1=S)Nc1ccc(C(=O)O)c(O)c1 | > 100 µM (inactive) |

Next, values leading:

| EC50 | Compound |
| --- | --- |
| > 100 µM (inactive) | N#Cc1c(SCC(=O)Nc2ccc(Cl)cc2Cl)sc2c(O)cc(=O)[nH]c12 |
| > 100 µM (inactive) | CC(C(=O)Nc1ccc(C(=O)O)cc1)N1C(=O)/C(=C\c2ccco2)SC1=S (stereo not given) |
| > 100 µM (inactive) | COc1cc([N+](=O)[O-])ccc1NC(=S)NCCC(c1ccccc1)c1ccccc1 |
| > 100 µM (inactive) | N#Cc1c(SCC(=O)Nc2nc3ccc(Br)cc3s2)sc2c(O)cc(=O)[nH]c12 |
| > 100 µM (inactive) | O=C(N/N=C/c1ccccc1F)c1cc(O)c(O)c(O)c1 |
| > 100 µM (inactive) | CC(C)NC(=O)CSc1sc2c(O)cc(=O)[nH]c2c1C#N |
| > 100 µM (inactive) | COc1ccc(OC)c(NC(=O)CSc2sc3c(O)cc(=O)[nH]c3c2C#N)c1 |
| > 100 µM (inactive) | N#Cc1c(SCC(=O)Nc2ccc(C(F)(F)F)cc2)sc2c(O)cc(=O)[nH]c12 |
| > 100 µM (inactive) | CN1CCC(=NNC(=O)c2cc(O)c(O)c(O)c2)CC1 |
| > 100 µM (inactive) | O=C(CCN1C(=O)/C(=C\c2ccco2)SC1=S)Nc1ccc(C(=O)O)c(O)c1 |
| > 100 µM (inactive) | CC(C(=O)NCCc1ccc(O)cc1)N1C(=O)/C(=C/c2ccco2)SC1=S (stereo not given) |
| > 100 µM (inactive) | O=C(CCCN1C(=O)/C(=C/c2ccco2)SC1=S)Nc1ccccc1 |
| > 100 µM (inactive) | O=C(NNC(=O)c1cc(O)c(O)c(O)c1)NC1CCCCC1 |
| > 100 µM (inactive) | CC(C)N1CCC(=NNC(=O)c2cc(O)c(O)c(O)c2)CC1 |
| > 100 µM (inactive) | COc1cccc(CNC(=O)CCNS(=O)(=O)c2ccc3[nH]c(=O)oc3c2)c1 |
| > 100 µM (inactive) | N#Cc1c(SCC(=O)Nc2nccs2)sc2c(O)cc(=O)[nH]c12 |
| > 100 µM (inactive) | COc1ccc(NC(=O)CSc2sc3c(O)cc(=O)[nH]c3c2C#N)c(OC)c1 |
| > 100 µM (inactive) | COc1ccc(N2CCN(C(=O)CN3C(=O)/C(=C\c4ccco4)SC3=S)CC2)cc1 |
| > 100 µM (inactive) | O=C(CN1C(=O)/C(=C/c2ccco2)SC1=S)Nc1ccc(C(=O)O)cc1 |
| > 100 µM (inactive) | N#Cc1c(SCC(=O)Nc2cccc(F)c2)sc2c(O)cc(=O)[nH]c12 |
| > 100 µM (inactive) | O=C(CN1C(=O)/C(=C/c2ccco2)SC1=S)NCCc1ccc(O)cc1 |
| > 100 µM (inactive) | Cc1csc(NC(=O)CSc2sc3c(O)cc(=O)[nH]c3c2C#N)n1 |
| 18.4 µM | COc1cc(C(=O)NNc2nc3cc4c(cc3s2)OCO4)cc(OC)c1OC |
| > 100 µM (inactive) | O=C(NCCc1ccc(Cl)cc1)C1CCCN(S(=O)(=O)c2ccc3[nH]c(=O)oc3c2)C1 (stereo not given) |
| > 100 µM (inactive) | CCN(CC)C(=O)CSc1sc2c(O)cc(=O)[nH]c2c1C#N |
| > 100 µM (inactive) | COc1ccccc1CNC(=O)CCNS(=O)(=O)c1ccc2[nH]c(=O)oc2c1 |
| > 100 µM (inactive) | O=C(CN1C(=O)/C(=C/c2ccco2)SC1=S)Nc1ccc(C(=O)O)c(O)c1 |
